Test results as given in ChEMBL document CHEMBL4152193, “Phthalimide conjugations for the degradation of oncogenic PI3K” (Eur J Med Chem, 2018).
Calls of active or inactive are those of the source. The rule behind the calls is not given here.

Legend:
[1] = test system: HepG2; test: Antiproliferative activity against human HepG2 cells at 1 to 50 uM after 48 hrs by MTT assay; format: functional, cell-based
[2] = biological target: T1, Protein cereblon-pI3K (Homo sapiens) (UniProt P42338+P48736+P42336+O00329+Q96SW2); test: Protac activity against PI3K/E3 ligase in human HepG2 cells assessed as induction of p110alpha protein degradation at 10 uM in human HepG2 cells by Western blot analysis; format: cell-based
[3] = biological target: T1, Protein cereblon-pI3K (Homo sapiens); test: Protac activity against PI3K/E3 ligase in human HepG2 cells assessed as reduction in Akt phosphorylation at Ser-473 residue in human HepG2 cells after 24 hrs by Western blot analysis; format: cell-based
[4] = test system: HepG2; test: Antiproliferative activity against human HepG2 cells assessed as inhibition of cell proliferation at 10 uM after 48 hrs by MTT assay; format: functional; details: HepG2, 48 h
[5] = biological target: T1, Protein cereblon-pI3K (Homo sapiens); test: Protac activity against PI3K/E3 ligase in human HepG2 cells assessed as reduction in phosphorylated S6K protein level in human HepG2 cells after 24 hrs by Western blot analysis; format: cell-based
[6] = biological target: Phosphatidylinositol 4,5-bisphosphate 3-kinase catalytic subunit alpha isoform (Homo sapiens, UniProt P42336); test: Inhibition of PI3Kalpha (unknown origin) using PIP2 as substrate after 1 hr by Kinase-Glo luminescent kinase assay
[7] = biological target: T1, Protein cereblon-pI3K (Homo sapiens); test: Protac activity against PI3K/E3 ligase in human HepG2 cells assessed as reduction in cyclin D1 protein level at 10 uM in human HepG2 cells by Western blot analysis; format: cell-based; details: TDE = time-dependent effect
[8] = biological target: T1, Protein cereblon-pI3K (Homo sapiens); test: Protac activity against PI3K/E3 ligase in human HepG2 cells assessed as reduction in phosphorylated GSK3beta protein level at 10 uM in human HepG2 cells by Western blot analysis; format: cell-based; details: TDE = time-dependent effect
[9] = biological target: T1, Protein cereblon-pI3K (Homo sapiens); test: Protac activity against PI3K/E3 ligase in human HepG2 cells assessed as increase in conversion of LC3B-1 to LC3B-2 at 10 uM after 3 hrs in human HepG2 cells by Western blot analysis; format: cell-based
[10] = test system: HepG2; test: Induction of apoptosis in human HepG2 cells assessed as late apoptotic cells at 10 uM after 24 hrs by Annexin V-FITC/propidium iodide staining-based flow cytometric analysis (reference value: 7.34%); format: functional
[11] = test system: HepG2; test: Cell cycle arrest in human HepG2 cells assessed as accumulation at G2/M phase at 10 uM after 24 hrs by flow cytometric analysis (reference value: 9.25%); format: functional
[12] = test system: HepG2; test: Cell cycle arrest in human HepG2 cells assessed as accumulation at S phase at 25 uM after 24 hrs by flow cytometric analysis (reference value: 3.77%); format: functional
[13] = test system: HepG2; test: Induction of apoptosis in human HepG2 cells assessed as late apoptotic cells at 25 uM after 24 hrs by Annexin V-FITC/propidium iodide staining-based flow cytometric analysis (reference value: 7.34%); format: functional
[14] = test system: HepG2; test: Induction of apoptosis in human HepG2 cells assessed as early apoptotic cells at 25 uM after 24 hrs by Annexin V-FITC/propidium iodide staining-based flow cytometric analysis (reference value: 2.46%); format: functional
[15] = test system: HepG2; test: Cell cycle arrest in human HepG2 cells assessed as accumulation at G0/G1 phase at 10 uM after 24 hrs by flow cytometric analysis (reference value: 86.6%); format: functional
[16] = test system: HepG2; test: Cell cycle arrest in human HepG2 cells assessed as accumulation at G0/G1 phase at 25 uM after 24 hrs by flow cytometric analysis (reference value: 86.6%); format: functional
[17] = test system: HepG2; test: Induction of apoptosis in human HepG2 cells assessed as early apoptotic cells at 5 uM after 24 hrs by Annexin V-FITC/propidium iodide staining-based flow cytometric analysis (reference value: 2.46%); format: functional
[18] = test system: HepG2; test: Induction of autophagy in GFP-LC3 transfected human HepG2 cells assessed as increase in LC3 puncta at 10 uM after 6 hrs by DAPI staining-based fluorescence microscopy; format: functional, cell-based
[19] = test system: HepG2; test: Induction of apoptosis in human HepG2 cells assessed as early apoptotic cells at 10 uM after 24 hrs by Annexin V-FITC/propidium iodide staining-based flow cytometric analysis (reference value: 2.46%); format: functional
[20] = test system: HepG2; test: Induction of apoptosis in human HepG2 cells assessed as late apoptotic cells at 5 uM after 24 hrs by Annexin V-FITC/propidium iodide staining-based flow cytometric analysis (reference value: 7.34%); format: functional
[21] = test system: HepG2; test: Induction of apoptosis in human HepG2 cells assessed as viable cells at 25 uM after 24 hrs by Annexin V-FITC/propidium iodide staining-based flow cytometric analysis (reference value: 90.1%); format: functional; details: HepG2, 24 h, read-out: Activity
[22] = test system: HepG2; test: Cell cycle arrest in human HepG2 cells assessed as accumulation at G0/G1 phase at 5 uM after 24 hrs by flow cytometric analysis (reference value: 86.6%); format: functional
[23] = test system: HepG2; test: Induction of apoptosis in human HepG2 cells assessed as necrotic cells at 5 uM after 24 hrs by Annexin V-FITC/propidium iodide staining-based flow cytometric analysis (reference value: 0.052%); format: functional
[24] = test system: HepG2; test: Induction of apoptosis in human HepG2 cells assessed as necrotic cells at 25 uM after 24 hrs by Annexin V-FITC/propidium iodide staining-based flow cytometric analysis (reference value: 0.052%); format: functional
[25] = test system: HepG2; test: Cell cycle arrest in human HepG2 cells assessed as accumulation at G2/M phase at 5 uM after 24 hrs by flow cytometric analysis (reference value: 9.25%); format: functional
[26] = test system: HepG2; test: Cell cycle arrest in human HepG2 cells assessed as accumulation at G2/M phase at 25 uM after 24 hrs by flow cytometric analysis (reference value: 9.25%); format: functional
[27] = test system: HepG2; test: Cell cycle arrest in human HepG2 cells assessed as accumulation at S phase at 10 uM after 24 hrs by flow cytometric analysis (reference value: 3.77%); format: functional
[28] = test system: HepG2; test: Cell cycle arrest in human HepG2 cells assessed as accumulation at S phase at 5 uM after 24 hrs by flow cytometric analysis (reference value: 3.77%); format: functional
[29] = test system: HepG2; test: Induction of apoptosis in human HepG2 cells assessed as necrotic cells at 10 uM after 24 hrs by Annexin V-FITC/propidium iodide staining-based flow cytometric analysis (reference value: 0.052%); format: functional
[30] = test system: HepG2; test: Induction of apoptosis in human HepG2 cells assessed as viable cells at 5 uM after 24 hrs by Annexin V-FITC/propidium iodide staining-based flow cytometric analysis (reference value: 90.1%); format: functional; details: HepG2, 24 h, read-out: Activity
[31] = test system: HepG2; test: Induction of apoptosis in human HepG2 cells assessed as viable cells at 10 uM after 24 hrs by Annexin V-FITC/propidium iodide staining-based flow cytometric analysis (reference value: 90.1%); format: functional; details: HepG2, 24 h, read-out: Activity

O=C(CCC(=O)N1CCN(c2nc(N3CCOCC3)nc(-n3c(C(F)F)nc4ccccc43)n2)CC1)NCCCC(=O)Nc1cccc2c1C(=O)N(C1CCC(=O)NC1=O)C2=O (stereo unspecified) was tested, and the Activity [1] was “Dose-dependent effect”, the Activity [2] was under 50% and the Activity [3] was “Dose-dependent effect”. The inhibition at 10 µM [4] was at most 50%, the Activity [5] was “Dose-dependent effect” and the IC50 [6] was 18 nM. The Activity [7] was “Tde”, the Activity [8] was “Tde” and the Activity [9] was “Active”.

For O=C1CCC(N2C(=O)c3cccc(NC(=O)CCCCCn4cc(CN5CCN(c6nc(N7CCOCC7)nc(-n7c(C(F)F)nc8ccccc87)n6)CC5)nn4)c3C2=O)C(=O)N1 (stereo unspecified), the Activity [1] was “Dose-dependent effect”, the Activity [2] was under 50% and the Activity [3] was “Dose-dependent effect”. The inhibition at 10 µM [4] was at most 50%, the Activity [5] was “Dose-dependent effect” and the IC50 [6] was 86 nM. For the same compound, the Activity [7] was “Tde”, the Activity [8] was “Tde” and the Activity [9] was “Active”.

Work on O=C1CCC(N2C(=O)c3cccc(NC(=O)CCCCCN4CCN(c5nc(N6CCOCC6)nc(-n6c(C(F)F)nc7ccccc76)n5)CC4)c3C2=O)C(=O)N1 (stereo unspecified) yielded an IC50 [6] of 2850 nM.

In the case of O=C1CCC(N2C(=O)c3cccc(NC(=O)CCCn4cc(CN5CCN(c6nc(N7CCOCC7)nc(-n7c(C(F)F)nc8ccccc87)n6)CC5)nn4)c3C2=O)C(=O)N1 (stereo unspecified), the Activity [1] is reported as “Dose-dependent effect”, the Activity [2] is reported as under 50% and the Activity [3] is reported as “Dose-dependent effect”. The inhibition at 10 µM [4] was at most 50%, the Activity [5] was “Dose-dependent effect” and the IC50 [6] was 90 nM. The Activity [7] was “Tde”, the Activity [8] was “Tde” and the Activity [9] was “Active”.

For O=C(CCC(=O)N1CCN(c2nc(N3CCOCC3)nc(-n3c(C(F)F)nc4ccccc43)n2)CC1)NCCCCCC(=O)Nc1cccc2c1C(=O)N(C1CCC(=O)NC1=O)C2=O (stereo unspecified), the Activity [1] was “Dose-dependent effect”, the Activity [2] was under 50% and the Activity [10] was 19.3%. The Activity [11] was 10.5%, the Activity [3] was “Dose-dependent effect” and the Activity [12] was 5.73%. The Activity [13] was 20.4%, the inhibition at 10 µM [4] was at most 50% and the Activity [14] was 10.3%. For the same compound, the Activity [15] was 85.6%, the Activity [16] was 81.3% and the Activity [17] was 10.3%. The Activity [18] was “Active”, the Activity [19] was 14.7% and the Activity [20] was 17.9%. The Activity [5] was “Dose-dependent effect”, the IC50 [6] was 24 nM and the viability at 25 µM [21] was 68.9%. For the same compound, the Activity [7] was “Tde”, the Activity [22] was 85.6% and the Activity [23] was 0.152%. For the same compound, the Activity [24] was 0.426%, the Activity [25] was 9.99% and the Activity [8] was “Tde”. It also gave an Activity [26] of 12.9%, an Activity [27] of 3.49% and an Activity [28] of 3.79%. For the same compound, the Activity [9] was “Active”, the Activity [29] was 0.4% and the viability at 5 µM [30] was 71.7%. For the same compound, the viability at 10 µM [31] was 65.6%.

For O=C(CCC(=O)NCCCC(=O)Nc1cccc2c1C(=O)N(C1CCC(=O)NC1=O)C2=O)NCCCCCC(=O)N1CCN(c2nc(N3CCOCC3)nc(-n3c(C(F)F)nc4ccccc43)n2)CC1 (stereo unspecified), the Activity [1] was “inactive” and the IC50 [6] was 38 nM.
